Source: patent US8580794B2 (AbbVie Inc., priority 2009, dated 2013)
Like-named read-outs stand apart in the source and are kept apart here.

Molecular target: GST-Bc1-2 (Homo sapiens, UniProt P10415)
Test: Time Resolved-Fluorescence Resonance Energy Transfer (TR-FRET) Bcl-2 binding assay with F-Bak peptide probe
[1] = GST-Bcl-2 1 nM, F-Bak probe 100 nM, Tb-anti-GST 1 nM, '<' = below limit of detection, read-out: TR-FRET Bcl-2 Binding Ki

Sequence of GST-Bc1-2 (P10415 whole entry): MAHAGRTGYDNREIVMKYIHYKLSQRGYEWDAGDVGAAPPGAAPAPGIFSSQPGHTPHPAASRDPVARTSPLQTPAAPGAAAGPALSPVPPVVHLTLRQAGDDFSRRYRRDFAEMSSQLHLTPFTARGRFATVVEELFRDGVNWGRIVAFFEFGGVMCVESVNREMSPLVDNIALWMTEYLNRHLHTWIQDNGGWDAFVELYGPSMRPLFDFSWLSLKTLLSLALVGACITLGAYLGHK

Compound | Ki [1] [nM] | other results
CC1(C)CCC(CN2CCN(c3ccc(C(=O)NS(=O)(=O)c4cnc(OC5CCN(C6CCOCC6)CC5)c(C#N)c4)c(Oc4cnc5[nH]ccc5c4)c3)CC2)=C(c2ccc(Cl)cc2)C1 [Example 84, 4-(4-{[2-(4-chlorophenyl)-4,4-dimethylcyclohex-1-en-1-yl]methyl}piperazin-1-yl)-N-({5-cyano-6-[(1-tetrahydro-2H-pyran-4-ylpiperidin-4-yl)oxy]pyridin-3-yl}sulfonyl)-2-(1H-pyrrolo[2,3-b]pyridin-5-yloxy)benzamide] | 0.123 | –
CC(C)c1cc(S(=O)(=O)NC(=O)c2ccc(N3CCN(CC4=C(c5ccc(Cl)cc5)CC(C)(C)CC4)CC3)cc2Oc2cnc3[nH]ccc3c2)cnc1OCC1CCOCC1 [Example 85, 4-(4-{[2-(4-chlorophenyl)-4,4-dimethylcyclohex-1-en-1-yl]methyl}piperazin-1-yl)-N-{[5-isopropyl-6-(tetrahydro-2H-pyran-4-ylmethoxy)pyridin-3-yl]sulfonyl}-2-(1H-pyrrolo[2,3-b]pyridin-5-yloxy)benzamide] | 0.391 | –
CC1(C)CCC(CN2CCN(c3ccc(C(=O)NS(=O)(=O)c4cc(F)c(NCC5CCOCC5)c(Cl)c4)c(Oc4cnc5[nH]ccc5c4)c3)CC2)=C(c2ccc(Cl)cc2)C1 [Example 86, N-({3-chloro-5-fluoro-4-[(tetrahydro-2H-pyran-4-ylmethyl)amino]phenyl}sulfonyl)-4-(4-{[2-(4-chlorophenyl)-4,4-dimethylcyclohex-1-en-1-yl]methyl}piperazin-1-yl)-2-(1H-pyrrolo[2,3-b]pyridin-5-yloxy)benzamide] | 0.498 | –
O=C(NS(=O)(=O)c1ccc(NCCCN2CCOCC2)c([N+](=O)[O-])c1)c1ccc(N2CCN(Cc3ccccc3-c3ccc(Cl)cc3)CC2)cc1Oc1ccc2[nH]ccc2c1 [Example 88, 4-{4-[(4′-chloro-1,1′-biphenyl-2-yl)methyl]piperazin-1-yl}-2-(1H-indol-5-yloxy)-N-({4-[(3-morpholin-4-ylpropyl)amino]-3-nitrophenyl}sulfonyl)benzamide] | 0.672 | –
CN1CCC(Nc2ccc(S(=O)(=O)NC(=O)c3ccc(N4CCN(CC5=C(c6ccc(Cl)cc6)CC(C)(C)CC5)CC4)cc3Oc3ccc4[nH]ccc4c3)cc2[N+](=O)[O-])CC1 [Example 90, 4-(4-{[2-(4-chlorophenyl)-4,4-dimethylcyclohex-1-en-1-yl]methyl}piperazin-1-yl)-2-(1H-indol-5-yloxy)-N-({4-[(1-methylpiperidin-4-yl)amino]-3-nitrophenyl}sulfonyl)benzamide] | – | Ki (TR-FRET Bcl-2 Binding Ki): 0.013 nM; Ki (read-out: Bcl-2 FRET ki): 0.013 nM
CN1CCN(Nc2ccc(S(=O)(=O)NC(=O)c3ccc(N4CCN(CC5=C(c6ccc(Cl)cc6)CC(C)(C)CC5)CC4)cc3Oc3ccc4[nH]ccc4c3)cc2[N+](=O)[O-])CC1 [Example 91, 4-(4-{[2-(4-chlorophenyl)-4,4-dimethylcyclohex-1-en-1-yl]methyl}piperazin-1-yl)-2-(1H-indol-5-yloxy)-N-({4-[(4-methylpiperazin-1-yl)amino]-3-nitrophenyl}sulfonyl)benzamide] | – | Ki (TR-FRET Bcl-2 Binding Ki): 0.487 nM; Ki (read-out: Bcl-2 FRET ki): 0.487 nM
CC1(C)CCC(CN2CCN(c3ccc(C(=O)NS(=O)(=O)c4ccc(OCC5COCCO5)c([N+](=O)[O-])c4)c(Oc4ccc5[nH]ccc5c4)c3)CC2)=C(c2ccc(Cl)cc2)C1 (stereo not shown) [Example 92, 4-(4-{[2-(4-chlorophenyl)-4,4-dimethylcyclohex-1-en-1-yl]methyl}piperazin-1-yl)-N-{[4-(1,4-dioxan-2-ylmethoxy)-3-nitrophenyl]sulfonyl}-2-(1H-indol-5-yloxy)benzamide] | – | Ki (TR-FRET Bcl-2 Binding Ki): 0.128 nM; Ki (read-out: Bcl-2 FRET Ki): 0.128 nM; Ki (read-out: Bcl-2 FRET ki): 0.128 nM
COCCNc1ccc(S(=O)(=O)NC(=O)c2ccc(N3CCN(CC4=C(c5ccc(Cl)cc5)CC(C)(C)CC4)CC3)cc2Oc2ccc3[nH]ccc3c2)cc1S(=O)(=O)C(F)(F)F [Example 93, 4-(4-{[2-(4-chlorophenyl)-4,4-dimethylcyclohex-1-en-1-yl]methyl}piperazin-1-yl)-2-(1H-indol-5-yloxy)-N-({4-[(2-methoxyethyl)amino]-3-[(trifluoromethyl)sulfonyl]phenyl}sulfonyl)benzamide] | 3.46 | Ki (read-out: Bcl-2 FRET ki): 35 nM
CC1(C)CCC(CN2CCN(c3ccc(C(=O)NS(=O)(=O)c4ccc(NCC5CCOCC5)c(S(=O)(=O)C(F)(F)F)c4)c(Oc4ccc5[nH]ccc5c4)c3)CC2)=C(c2ccc(Cl)cc2)C1 [Example 94, 4-(4-{[2-(4-chlorophenyl)-4,4-dimethylcyclohex-1-en-1-yl]methyl}piperazin-1-yl)-2-(1H-indol-5-yloxy)-N-({4-[(tetrahydro-2H-pyran-4-ylmethyl)amino]-3-[(trifluoromethyl)sulfonyl]phenyl}sulfonyl)benzamide] | – | Ki (TR-FRET Bcl-2 Binding Ki): 0.678 nM; Ki (read-out: Bcl-2 FRET ki): 0.678 nM
CC1(C)CCC(CN2CCN(c3ccc(C(=O)NS(=O)(=O)c4ccc(NC5CCN(C(CF)CF)CC5)c([N+](=O)[O-])c4)c(Oc4cnc5[nH]ccc5c4)c3)CC2)=C(c2ccc(Cl)cc2)C1 [Example 95, 4-(4-{[2-(4-chlorophenyl)-4,4-dimethylcyclohex-1-en-1-yl]methyl}piperazin-1-yl)-N-{[4-({1-[2-fluoro-1-(fluoromethyl)ethyl]piperidin-4-yl}amino)-3-nitrophenyl]sulfonyl}-2-(1H-pyrrolo[2,3-b]pyridin-5-yloxy)benzamide] | 0.014 | –
CC1(C)CCC(CN2CCN(c3ccc(C(=O)NS(=O)(=O)c4cnc(OCC5(F)CCOCC5)c(Cl)c4)c(Oc4cnc5[nH]ccc5c4)c3)CC2)=C(c2ccc(Cl)cc2)C1 [Example 96, N-({5-chloro-6-[(4-fluorotetrahydro-2H-pyran-4-yl)methoxy]pyridin-3-yl}sulfonyl)-4-(4-{[2-(4-chlorophenyl)-4,4-dimethylcyclohex-1-en-1-yl]methyl}piperazin-1-yl)-2-(1H-pyrrolo[2,3-b]pyridin-5-yloxy)benzamide] | 0.014 | –
CC1(C)CCC(CN2CCN(c3ccc(C(=O)NS(=O)(=O)c4ccc(NC5CCN(CC(F)F)CC5)c([N+](=O)[O-])c4)c(Oc4cnc5[nH]ccc5c4)c3)CC2)=C(c2ccc(Cl)cc2)C1 [Example 97, 4-(4-{[2-(4-chlorophenyl)-4,4-dimethylcyclohex-1-en-1-yl]methyl}piperazin-1-yl)-N-[(4-{[1-(2,2-difluoroethyl)piperidin-4-yl]amino}-3-nitrophenyl)sulfonyl]-2-(1H-pyrrolo[2,3-b]pyridin-5-yloxy)benzamide] | 0.017 | –
CC1(C)CCC(CN2CCN(c3ccc(C(=O)NS(=O)(=O)c4ccc(NC5CCN(C6CC6)CC5)c([N+](=O)[O-])c4)c(Oc4cnc5[nH]ccc5c4)c3)CC2)=C(c2ccc(Cl)cc2)C1 [Example 98, 4-(4-{[2-(4-chlorophenyl)-4,4-dimethylcyclohex-1-en-1-yl]methyl}piperazin-1-yl)-N-({4-[(1-cyclopropylpiperidin-4-yl)amino]-3-nitrophenyl}sulfonyl)-2-(1H-pyrrolo[2,3-b]pyridin-5-yloxy)benzamide] | < 0.01 | –
CC1(C)CCC(CN2CCN(c3ccc(C(=O)NS(=O)(=O)c4ccc(NCC5(N6CCOCC6)CCCCC5)c([N+](=O)[O-])c4)c(Oc4cnc5[nH]ccc5c4)c3)CC2)=C(c2ccc(Cl)cc2)C1 [Example 99, 4-(4-{[2-(4-chlorophenyl)-4,4-dimethylcyclohex-1-en-1-yl]methyl}piperazin-1-yl)-N-[(4-{[(1-morpholin-4-ylcyclohexyl)methyl]amino}-3-nitrophenyl)sulfonyl]-2-(1H-pyrrolo[2,3-b]pyridin-5-yloxy)benzamide] | 0.233 | –
CC1(C)CCC(CN2CCN(c3ccc(C(=O)NS(=O)(=O)c4ccc(N[C@H]5CC[C@H](N(C6CC6)C6CC6)CC5)c([N+](=O)[O-])c4)c(Oc4cnc5[nH]ccc5c4)c3)CC2)=C(c2ccc(Cl)cc2)C1 [Example 100, Trans-4-(4-{[2-(4-chlorophenyl)-4,4-dimethylcyclohex-1-en-1-yl]methyl}piperazin-1-yl)-N-[(4-{[4-(dicyclopropylamino)cyclohexyl]amino}-3-nitrophenyl)sulfonyl]-2-(1H-pyrrolo[2,3-b]pyridin-5-yloxy)benzamide] | < 0.01 | –
CCN1CCOCC1COc1ncc(S(=O)(=O)NC(=O)c2ccc(N3CCN(CC4=C(c5ccc(Cl)cc5)CC(C)(C)CC4)CC3)cc2Oc2cnc3[nH]ccc3c2)cc1Br (stereo not shown) [Example 102, N-({5-bromo-6-[(4-ethylmorpholin-3-yl)methoxy]pyridin-3-yl}sulfonyl)-4-(4-{[2-(4-chlorophenyl)-4,4-dimethylcyclohex-1-en-1-yl]methyl}piperazin-1-yl)-2-(1H-pyrrolo[2,3-b]pyridin-5-yloxy)benzamide] | 0.094 | –
CCN1CCOCC1COc1ccc(S(=O)(=O)NC(=O)c2ccc(N3CCN(CC4=C(c5ccc(Cl)cc5)CC(C)(C)CC4)CC3)cc2Oc2cnc3[nH]ccc3c2)cc1[N+](=O)[O-] (stereo not shown) [Example 103, 4-(4-{[2-(4-chlorophenyl)-4,4-dimethylcyclohex-1-en-1-yl]methyl}piperazin-1-yl)-N-({4-[(4-ethylmorpholin-3-yl)methoxy]-3-nitrophenyl}sulfonyl)-2-(1H-pyrrolo[2,3-b]pyridin-5-yloxy)benzamide] | < 0.01 | –
CC1(C)CCC(CN2CCN(c3ccc(C(=O)NS(=O)(=O)c4ccc(N[C@H]5CCCN(C6CCOCC6)C5)c([N+](=O)[O-])c4)c(Oc4cnc5[nH]ccc5c4)c3)CC2)=C(c2ccc(Cl)cc2)C1 [Example 105, 4-(4-{[2-(4-chlorophenyl)-4,4-dimethylcyclohex-1-en-1-yl]methyl}piperazin-1-yl)-N-[(3-nitro-4-{[(3S)-1-tetrahydro-2H-pyran-4-ylpiperidin-3-yl]amino}phenyl)sulfonyl]-2-(1H-pyrrolo[2,3-b]pyridin-5-yloxy)benzamide] | < 0.01 | –
CC1(C)CCC(CN2CCN(c3ccc(C(=O)NS(=O)(=O)c4cnc(NCC5CCOCC5)c(C#N)c4)c(Oc4cnc5[nH]ccc5c4)c3)CC2)=C(c2ccc(Cl)cc2)C1 [Example 106, 4-(4-{[2-(4-chlorophenyl)-4,4-dimethylcyclohex-1-en-1-yl]methyl}piperazin-1-yl)-N-({5-cyano-6-[(tetrahydro-2H-pyran-4-ylmethyl)amino]pyridin-3-yl}sulfonyl)-2-(1H-pyrrolo[2,3-b]pyridin-5-yloxy)benzamide] | 0.895 | –
